In publication PMC4980623 (2016):

Key:
[1] = system: HTG22 (FRET, FAM/TAMRA) (DNA, G4) AGGGTTAGGGTTAGGGTTAGGG; assay: FRET melting; conditions: 20 μM compound, DNA:drug 1:10
[2] = system: c-myc (pu27) (DNA, G4) TGGGGAGGGTGGGGAGGGTGGGGAAGG; assay: FRET melting; conditions: K+ (100 mM; K+ and Na+ swapped elsewhere in the source); various concentrations
[3] = system: HTG22 (5'-biotin, SPR) (DNA, G4) AGGGTTAGGGTTAGGGTTAGGG; assay: SPR kinetics, bivalent ligand model; conditions: K+ (100 mM; K+ and Na+ swapped elsewhere in the source), stronger of two sites
[4] = system: Hairpin DNA (5'-biotin, SPR) (DNA, hairpin) TTGGCCAATGTTTGGCCAA; assay: SPR
[5] = system: HTG22 (DNA, G4) AGGGTTAGGGTTAGGGTTAGGG; assay: CD titration, 285 nm; conditions: K+ (100 mM; K+ and Na+ swapped elsewhere in the source); 5 μM DNA, Tris-HCl
[6] = system: HTG22 (DNA, G4) AGGGTTAGGGTTAGGGTTAGGG; assay: UV-vis absorption titration; conditions: K+ (100 mM; K+ and Na+ swapped elsewhere in the source), 15 μM compound, 0-60 μM DNA, Tris-HCl
[7] = system: Hairpin DNA (DNA, hairpin) TTGGCCAATGTTTGGCCAA; assay: UV melting, 260 nm; conditions: 100 mM KCl; DNA:drug 1:10, 3 μM DNA; 20 mM cacodylic acid buffer, pH 7.3
[8] = system: c-kit 1 (DNA, G4) GGGAGGGCGCTGGGAGGAGGG; assay: FRET melting; conditions: various concentrations
[9] = K+ (100 mM; K+ and Na+ swapped elsewhere in the source)
[10] = Na+ (100 mM; K+ and Na+ swapped elsewhere in the source)

SMILES | Delta Tm [1, 9] | Delta Tm [1, 10] | binding [2] | Ka2 ([3]; Ka1 2.82 × 10^5) | Ka [4] | binding [5] | binding ([6]; 16.89% hypochromicity, 1 nm red shift) | Delta Tm [7] | binding [8, 9] | binding [8, 10] | Ka2 ([3]; Ka1 1.65 × 10^5) | binding ([6]; 16.41% hypochromicity, 3 nm red shift)
C[N+]1(C)CCN(Cc2nc3ccc4c(c3[nH]2)C(=O)c2ccccc2C4=O)CC1 | 8.04 °C | 1.00 °C | no | 384000 M⁻¹ | 40000 M⁻¹ | yes | yes | 0.10 °C | yes | no |  | 
CN1CCN(Cc2nc3ccc4c(c3[nH]2)C(=O)c2ccccc2C4=O)CC1 | 5.85 °C | 0.55 °C | no |  | 60000 M⁻¹ | yes |  | 0.03 °C | yes | no | 169000 M⁻¹ | yes
